The values below come from article PMC9861623, “New Ferulic Acid and Amino Acid Derivatives with Increased Cosmeceutical and Pharmaceutical Potential” (Pharmaceutics, 2022).

SMILES strings stand for the structures. “And” between values parts separate entries of the source, which are not always exact repeats. Equal values may be shown once.

The subject of data set [1] is UVB irradiated human melanocytes. Set-up: method as in PMID 19274591. Conditions: cited from earlier work.
On the set-up of data set [2]: method as in PMID 20692328. The note with it: cited from earlier work.
A short description of data set [3]: n-octanol/water partition coefficient by shake flask method. The format is physicochemical. Conditions: for log PO/W: n-octanol/water, shake flask, 25 °C. The method, then:
The n-octanol/water partition coefficient (log PO/W) was determined for ferulic acid and its derivatives by shake flask method. n-Octanol saturated with water and water saturated with n-octanol were prepared at 25 °C, 24 h prior to their use in the experiments. Then, a sample of 10 mg of compound was weighed with the accuracy of 0.01 mg in a 16 cm^3 screwed vial and dissolved in 5 cm^3 of n-octanol. Next, 5 cm^3 of water was added to the vial. The resulting two-phase mixture was kept in water bath shaker at 25 °C for 2 h and was strongly shaken to reach the partition equilibrium of the compound between the phases. Then the mixture was left unshaken for 30 min and 1.0 cm^3 of water phase was carefully taken out to centrifuge tube. The sample was next centrifuged for 10 min at 7500 rpm at 25 °C to ensure the most precise phase separation. The concentration of compound in water phase was then determined using HPLC method. The partition coefficient, log PO/W was calculated according to the formula: logPO/W=logC0V0−CWVW/CWVW where: C0—initial concentration of the compound in n-octanol, calculated based on the weighed mass of compound, mg·cm^−^3; V0—volume of n-octanol, cm^3; CW—concentration of the compound in water after partition equilibrium, mg·cm^−^3; VW—volume of water, cm^3.

Data set [4] can be described thus: Skin permeation in Franz diffusion cells. The class given is in vitro ADME, pig. Conditions: 24 h, 10 mg as FA applied. On the procedure: In the experiment, abdominal porcine skin coming from the local slaughterhouse was used. Pig skin was chosen because of its similar permeability to human skin [34, 35]. The fresh abdominal porcine skin was washed several times in PBS buffer pH 7.4. The skin of 0.5 mm in thickness was dermatomed and divided into 2 cm × 2 cm pieces. The skin samples were wrapped in aluminum foil and stored at −20 °C until use, not longer than 3 months. According to Badran et al., this storage time at this temperature is safe to keep skin barrier properties. Immediately before the experiment, the skin samples were slowly thawed at room temperature for 30 min and then were hydrated by PBS pH 7.4 [37, 38, 39, 40]. Such prepared skin was mounted on donor chamber. Only the undamaged skin pieces with an even thickness were chosen for experiments. The integrity of the skin was checked by impedance measurement using an LCRmeter4080 (Conrad Electronic, Hirschau, Germany), operated in parallel mode at an alternating frequency of 120 Hz (error at kΩ values < 0.5%). The tips of measuring probes were immersed in the donor and acceptor chamber containing PBS (pH 7.4), as described previously. Only skin samples of impedance > 3 kΩ were applied as such impedance is similar to the electrical resistance of human skin [42].
The concentration of FA and its derivatives in the acceptor fluid and in the fluid obtained by skin extraction after permeation experiment was assessed using liquid chromatography system (Knauer, Berlin, Germany) consisting of a model 2600 UV detector, Smartline model 1050 pump and Smartline model 3950 autosampler. HPLC was controlled by ClarityChrom 2009 software. The detector was operated at 280 nm. The separations were performed on 125 mm × 4 mm ID chromatographic column filled with Hyperisil ODS (C18), particle size 5 µm, in isocratic mode. The mobile phase consisted of acetonitrile, 1% acetic acid, and MeOH (47/47/6 v/v/v) and was pumped at flow rate of 1 mL min^−1. The column temperature was set at 25 °C, and the injection volume was 20 µL.
(§1) The permeation experiments were performed using Franz diffusion cells (Phoenix DB-6, ABL&E-JASCO, Wien, Austria). The diffusion was 1 cm^2. The volume of the acceptor chamber was 8 mL. This chamber was filled with PBS solution (pH 7.4). During experiment, a constant temperature of 37.0 ± 0.5 °C was maintained in each diffusion unit. The acceptor chamber content was stirred with a magnetic stirring bar at the same speed for all cells. The prepared pig skin was mounted on each donor chamber. As previously mentioned, only undamaged skin pieces with an even thickness were chosen for experiments. Thereafter, the hydrogel or emulsion vehicle/preparation in 1 g portion was put on the skin in donor cells. For comparison, 1 mL ethanolic solution containing either FA or its derivatives was applied to another donor chamber. The amount of the FA and its derivatives applied on the skin expressed as the mass of ferulic acid was 0.01 g and was the same for each carrier. The penetration experiments were carried out for 24 h. The samples were collected after 1 h, 2 h, 3 h, 4 h, 5 h, 6 h, 8 h, and 24 h. Aliquots of the acceptor fluid (0.5 mL) were withdrawn and to each acceptor chamber the same volume of fresh PBS solution was added. The FA and its derivatives’ concentrations in the acceptor fluid were measured by HPLC method (Section 2.6.2). The cumulative mass (µg·cm^−2) and penetration rate (µg·cm^−2·h^−1) were calculated. The acceptor fluid collected after 24 h of permeation was also measured for antioxidant activity and total polyphenol content (as described in Section 2.5.1 and Section 2.5.2).

Data set [5] is described as follows: DPPH radical scavenging assay of the compounds. On the procedure: (§2) To determine the antioxidant capacity of ferulic acid and its derivatives the DPPH method was used. The analyses were performed using the Hitachi UV-Vis Spectrophotometer U-5100 at the wavelength λ = 517 nm. Trolox (6-hydroxy-2,5,7,8-tetramethylchroman-2-carboxylic acid) was used as a reference substance. The antioxidant activity was expressed as %RSA and mmol Trolox dm^−3. […]. Blank samples without antioxidant were prepared in the same way. The tubes were wrapped in aluminum foil and were sealed with a stopper and then incubated for 10 min at room temperature. After this time, spectrophotometric measurements were carried out in triplicate. For determination of antioxidant activity of the acceptor fluid after 24 h of permeation and solutions obtained by extraction of the skin obtained after penetration study, 0.15 mL samples of each solutions were separately added to 2.85 mL of DPPH solution and spectrophotometric measurements were performed. The antioxidant activity was expressed as mmol Trolox·dm^−3.
A general note: DPPH is a stable violet radical that fades when it is reduced.

Data set [6] is described as follows: DPPH antioxidant activity of solution obtained after skin extraction. Set-up: species or system pig. Conditions: after 24 h penetration. The method, then:
as §2
The accumulation of the FA and its derivatives in the skin after 24 h permeation process through the skin were determined using a modification of the methods described by Janus et al. and Taokaew et al.. After 24 h of permeation experiment, the skin samples were removed from the Franz diffusion cell, washed three times with 0.5% sodium lauryl sulfate solution and dried at room temperature. Next, after cutting out the diffusion area of each skin sample, the samples were immersed in 2 mL of absolute ethanol and continuously stirred at 300 rpm at room temperature for 24 h. The samples were then centrifuged, and clear solutions were collected and analyzed by HPLC method for the determination of FA and its derivatives. The accumulation of the active substance in the skin was calculated by dividing the amount of the drug remaining in the skin by a mass of skin sample and was expressed in mass active substance per mass of the skin (µg g^−1). For solution obtained after skin extraction, the antioxidant activity and total polyphenol content were also determined (as described in Section 2.5.1 and Section 2.5.2).

The nature of data set [7]: Thermogravimetric (TG) analysis, thermal stability. The format is physicochemical. Conditions: air atmosphere, 10 °C·min^−1; for Td onset, the onset of decomposition: TG; for Td max, temperature of the fastest mass loss of the sample: TG/DTG. The method, then:
Samples of 2–5 mg, loaded in aluminium crucibles, were heated from 30 °C to 600 °C at the heating rate of 10 °C·min^−1, in the air atmosphere (25 mL·min^−1) with nitrogen flow (10 mL·min^−1) as the purge gas.

A short description of data set [8]: DPPH antioxidant activity of acceptor fluid after 24 h permeation. The arrangement: species or system pig. Conditions: after 24 h penetration. The method, then: as §2, §1
Setting [9] is: from solution in 70% (v/v) ethanol.
The mark [10] stands for this setting: molar ratio antioxidant:DPPH 0.1, 10 min.
The mark [11] stands for this setting: molar ratio antioxidant:DPPH 1.0, 10 min.
Where [12] appears, read: molar ratio antioxidant:DPPH 2.0, 10 min.

As to `CCOC(=O)/C=C/c1ccc(O)c(OC)c1` [FAEE, ferulic acid ethyl ester], in data set [1], the “production of ROS” value is “reduced the production of ROS”. Moreover, in data set [2], the “skin permeation compared with pure FA” value is “permeated the skin to a higher degree than pure FA”.
In the case of `CCCOC(=O)CN.COc1cc(/C=C/C(=O)O)ccc1O` [GPr[FA], glycine propyl ester ferulate], the “Share of compound partitioned to n-octanol” value in data set [3] (from log PO/W) stood at 79%. For the same compound, the “log PO/W” value in data set [3] worked out at 0.582 ± 0.019. Also, the “Cumulative Permeation Mass” value in data set [4] (from emulsion) is listed as 101.70 ± 26.47 a µg FA·cm^−2; in data set [4] (from hydrogel) it was 268.16 ± 12.71 a µg FA·cm^−2; in data set [4] (setting [9]), 378.26 ± 2.29 a µg FA·cm^−2. For the same compound, the “Antioxidant activity %RSA” value in data set [5] (setting [10]) is 17.6 ± 0.001 %RSA and 17.6 ± 0.001 a %RSA; in data set [5] (setting [11]) it was 78.0 ± 0.001 b %RSA; in data set [5] (setting [12]), 86.6 ± 0.001 %RSA and 86.6 ± 0.001 b %RSA. The “Antioxidant activity, Trolox equivalents” value in data set [5] (setting [10]) was 0.099 ± 0.001 mmol Trolox dm^−3 and 0.099 ± 0.001 a mmol Trolox dm^−3; in data set [5] (setting [11]), 0.681 ± 0.001 b mmol Trolox dm^−3; in data set [5] (setting [12]), 0.764 ± 0.001 mmol Trolox dm^−3 and 0.764 ± 0.001 b mmol Trolox dm^−3. The figures for the “DPPH antioxidant activity of the solution obtained after skin extraction” value in data set [6] (emulsion), in data set [6] (ethanol solution) and in data set [6] (hydrogel) were 0.235 ± 0.037 a mmol Trolox dm^−3, 0.257 ± 0.026 a mmol Trolox dm^−3 and 0.298 ± 0.009 a mmol Trolox dm^−3, respectively. In data set [7], the “Td onset, the onset of decomposition” value turned out to be 129.6 °C. Moreover, the “Td max, temperature of the fastest mass loss of the sample” value in data set [7] was found to be 145.3 °C. In addition, the “DPPH antioxidant activity of the acceptor fluid” value in data set [8] (emulsion) came out at 0.059 ± 0.010 a mmol Trolox dm^−3; in data set [8] (ethanol solution), 0.097 ± 0.021 b mmol Trolox dm^−3; in data set [8] (hydrogel) it was 0.069 ± 0.002 a mmol Trolox dm^−3.
Consider `COc1cc(/C=C/CO)ccc1O` [CA, coniferyl alcohol], for which the “skin permeation compared with pure FA” value in data set [2] is given as “permeated the skin to a higher degree than pure FA”.
Take `COc1cc(/C=C/C=O)ccc1O` [CD, coniferyl aldehyde]: the “skin permeation compared with pure FA” value in data set [2] was “permeated the skin to a higher degree than pure FA”.
As to `CCCOC(=O)[C@@H](N)CC(C)C.COc1cc(/C=C/C(=O)O)ccc1O` [LPr[FA], L-leucine propyl ester ferulate], the “log PO/W” value in data set [3] is given as 0.454 ± 0.009. Moreover, the “Cumulative Permeation Mass” value is 119.29 ± 19.72 a µg FA·cm^−2 in data set [4] (from emulsion); 267.48 ± 24.57 a µg FA·cm^−2 in data set [4] (from hydrogel); 415.12 ± 8.71 µg FA·cm^−2 and 415.12 ± 8.71 b µg FA·cm^−2 in data set [4] (setting [9]). For the same compound, the “Antioxidant activity %RSA” value is 17.6 ± 0.001 %RSA and 17.6 ± 0.001 a %RSA in data set [5] (setting [10]); 79.5 ± 0.001 b %RSA in data set [5] (setting [11]); 87.8 ± 0.001 %RSA and 87.8 ± 0.001 b %RSA in data set [5] (setting [12]). For the same compound, the “Antioxidant activity, Trolox equivalents” value in data set [5] (setting [10]) was 0.098 ± 0.001 mmol Trolox dm^−3 and 0.098 ± 0.001 a mmol Trolox dm^−3; in data set [5] (setting [11]) it was 0.696 ± 0.001 b mmol Trolox dm^−3; in data set [5] (setting [12]) it was 0.776 ± 0.001 mmol Trolox dm^−3 and 0.776 ± 0.001 b mmol Trolox dm^−3. Also, the “DPPH antioxidant activity of the solution obtained after skin extraction” value is 0.257 ± 0.014 ab mmol Trolox dm^−3 in data set [6] (emulsion); 0.255 ± 0.038 a mmol Trolox dm^−3 in data set [6] (ethanol solution); 0.255 ± 0.038 mmol Trolox dm^−3 in data set [6] (ethanol solution, listed as Leu[FA]); 0.298 ± 0.009 mmol Trolox dm^−3 and 0.320 ± 0.030 ab mmol Trolox dm^−3 in data set [6] (hydrogel). Also, the “Td onset, the onset of decomposition” value in data set [7] was determined as 126.0 °C. Also, in data set [7], the “Td max, temperature of the fastest mass loss of the sample” value is 156.0 °C. For the same compound, the “DPPH antioxidant activity of the acceptor fluid” value in data set [8] (emulsion) is 0.053 ± 0.005 mmol Trolox dm^−3 and 0.053 ± 0.005 a mmol Trolox dm^−3; in data set [8] (ethanol solution), 0.098 ± 0.011 mmol Trolox dm^−3 and 0.098 ± 0.011 a mmol Trolox dm^−3; in data set [8] (hydrogel) it was 0.063 ± 0.009 mmol Trolox dm^−3 and 0.063 ± 0.009 a mmol Trolox dm^−3.
